Values of other authors, collected in US20250025420A1, “TERNARY CO-AMORPHOUS FORMS OF DRUGS, PROTEINS, AND WATER-SOLUBLE POLYMERS” (Zerion Pharma APS, priority 2021, published 2025).

Details: stated in Materials

For C=C(C)[C@@H]1CCC(C)=C[C@H]1c1c(O)cc(CCCCC)cc1O [Cannabidiol], the pKa is given as 9.7.

For C=CC(=O)N1CCC[C@@H](n2nc(-c3ccc(Oc4ccccc4)cc3)c3c(N)ncnc32)C1 [Ibrutinib], the pKa is given as 3.74.
